Data set [1] is described as follows: Pharmacokinetic study, plasma level 2 hours after oral dosing in rats. Type of data set: in vivo. The procedure: Pharmacokinetic studies were conducted to determine absorption and distribution profiles of the disclosed compounds which were orally administered to rats.
Compounds were formulated in a 1% DMA/99% Vitamin E TPGS vehicle. Prepared compounds were dosed via oral gavage (PO). Following the appropriate pretreatment time of 2 hours, rats were anesthetized with isoflurane gas. Blood was collected into tubes containing EDTA via retro-orbital eye bleed. Whole blood was spun in a micro-centrifuge at approximately 13,000 rpm for 5 minutes at room temperature. Separated plasma was subsequently aliquoted into eppendorf tubes. Samples were stored at −80° C. until prepped for analysis.
Plasma samples were thawed and the required amount of plasma for standards, blanks and dilutions were made. The dilutions were prepared before plating. Preparation of crash solution included cold acetonitrile+0.1% formic acid and 25 ng/mL of a FAAH inhibitor used as internal standard. solvent standards of the FAAH inhibitor being studied were preparation at 10, 30, 100, 300, 1000, 3000, 10000, 30000, 100000, and 300000 ng/mL in DMSO. Then a plasma standard curve was generated from the solvent standards (final concentrations of standards in plasma were: 0.1, 0.3, 1, 3, 10, 30, 100, 300, 1000, 3000 ng/mL). 50 μL of each plasma sample/dilution, standard, or blank was transferred into 96-well plates. To each well, 200 μL of cold crash solution was added. The plate was covered and gently vortexed. The plate was centrifuged at 3500 rpm, 4° C. for 10 min. 200 μL of each supernatant was transferred into new plates. The plates were dried under nitrogen in a TurboVap at 55° C. The sample in each well was re-suspended with 100 μL of 30% acetonitrile, covered and vortexed gently. The well solutions were analyzed by the LC/MS/MS conditions and specifications below.
HPLC column was a Clipeus C8, 2.1×30 mm, 5 μm, with Basic 8 guard column using 20 μL injections. Mobile phase used was mobile phase A: 0.1% Formic Acid in water and mobile phase B: 0.1% Formic Acid in 85:10:5 ACN:IPA:H2O. The flow rate for the run was 0.5 mL/min and the gradient for the 4 minute total run time was: 0.0 minutes

Another data set deals with T1, hERG channel (Homo sapiens, UniProt Q12809).
T1 construct: expressed in transfected cells; host or cells: CHO (hERG-CHO), under Geneticin selection
T1 sequence (Q12809 whole entry): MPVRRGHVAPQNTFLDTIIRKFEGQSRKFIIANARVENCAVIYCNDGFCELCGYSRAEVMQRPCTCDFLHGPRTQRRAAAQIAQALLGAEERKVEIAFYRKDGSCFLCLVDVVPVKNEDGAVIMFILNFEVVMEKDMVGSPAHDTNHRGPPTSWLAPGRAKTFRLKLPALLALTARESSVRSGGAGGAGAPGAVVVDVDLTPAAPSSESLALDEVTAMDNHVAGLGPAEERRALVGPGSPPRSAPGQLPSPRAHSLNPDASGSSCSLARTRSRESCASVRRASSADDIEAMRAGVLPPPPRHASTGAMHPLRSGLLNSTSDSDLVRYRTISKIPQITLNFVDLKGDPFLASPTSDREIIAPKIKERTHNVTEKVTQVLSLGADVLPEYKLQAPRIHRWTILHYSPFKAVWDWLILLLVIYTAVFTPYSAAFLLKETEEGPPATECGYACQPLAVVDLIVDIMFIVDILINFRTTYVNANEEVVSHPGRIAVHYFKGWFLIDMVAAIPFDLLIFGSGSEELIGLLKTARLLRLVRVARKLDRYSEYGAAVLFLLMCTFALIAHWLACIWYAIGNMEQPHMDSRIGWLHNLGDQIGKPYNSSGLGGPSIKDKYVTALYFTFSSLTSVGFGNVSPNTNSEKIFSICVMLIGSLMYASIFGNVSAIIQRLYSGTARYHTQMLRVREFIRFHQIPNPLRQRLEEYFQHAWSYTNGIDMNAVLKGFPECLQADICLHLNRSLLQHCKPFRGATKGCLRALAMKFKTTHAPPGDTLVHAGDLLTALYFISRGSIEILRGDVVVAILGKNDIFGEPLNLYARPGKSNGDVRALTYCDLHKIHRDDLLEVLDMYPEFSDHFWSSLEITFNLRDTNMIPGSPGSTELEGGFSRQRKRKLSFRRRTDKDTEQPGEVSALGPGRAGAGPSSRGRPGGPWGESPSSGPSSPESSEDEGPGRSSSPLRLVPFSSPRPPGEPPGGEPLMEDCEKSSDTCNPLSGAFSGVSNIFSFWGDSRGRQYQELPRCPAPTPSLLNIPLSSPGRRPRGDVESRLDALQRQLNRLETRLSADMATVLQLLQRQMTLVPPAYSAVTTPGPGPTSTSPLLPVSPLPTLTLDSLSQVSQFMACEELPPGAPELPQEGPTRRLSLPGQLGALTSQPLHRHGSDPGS
As to the kind of experiment: hERG channel inhibition, automated patch clamp (IonWorks HT, hERG-CHO). Type of data set: cell-based. To be noted: CHO cells expressing hERG, 600 s incubation; for inhibition at 600 s, 1 µM: 1 μM compound, read-out: hERG Channel Inhibition % (at 1 μM), vehicle-subtracted values; for inhibition at 600 s, 10 µM: 10 μM compound, read-out: hERG Channel Inhibition % (at 10 μM), vehicle-subtracted values. The procedure: Human ether-a-gogo-related (hERG) ion channel encodes the inward rectifying voltage gated potassium channel in the heart and has a major role during the repolarization of the cardiac action potential. It is well established that blockade of this ion channel can lead to potentially lethal arrhythmias. hERG pre-clinical safety data is often used by regulatory agencies in elucidate the toxicity profile of certain compositions. The disclosed compounds of Table 1 were tested for their ability to inhibit hERG ion channels.
Media components include F12 Nutrient Mixture (Ham) with GlutaMAX™ (Invitrogen, Cat#31765), Fetal Bovine Serum, Certified (Invitrogen, Cat#16000-044—not heat activated), and Geneticin® Selective Antibiotic (Invitrogen, Cat#10131-027).
One vial of frozen cells, at 1.62×10^6 cells are thawed into a T150 flask (BD Falcon 355001) with 40 mL of pre-warmed complete media. Cells are cultured at 37° C., 5% CO2 for four hours prior to gently changing media. 99% of cells appear attached at this time point.
The flask is media changed at 24 hours post-thaw, the cells are imaged, media changed, and returned to the incubator. At this point, the cells appear healthy and about 25% confluent in the flask. Cells are typically passed 24-48 hours after thaw according to the following intervals and densities below. Cells are incubated at 30° C. for 48 hours prior to assay.
Using an automated patch clamp apparatus (IonWorks^HT), a three pulse protocol was applied by stepping from a holding potential of −80 mV to […] for 2 s, to activate hERG channels. The membrane voltage was then stepped back to −50 mV for 2 s to evoke a tail current prior to returning to the holding potential for 1 s. This sequence was repeated a further two times. This voltage protocol was applied prior to drug (Pre compound) and after 600 s in the presence of drug (Post compound).
The amplitude of the hERG tail current was calculated by measuring the difference between the maximum current on stepping to −50 mV of the third pulse (i.e. peak of the outward hERG tail current) and the current measured immediately prior to activation of any hERG current. This parameter was assessed before (pre tail current amplitude) and after 600 s incubation (post tail current amplitude) in drug. In order to assess the amount of block produced by test compounds, the data was first filtered using the IonWorks™ software to exclude any cells where the seal resistance was less than 50 MOhm. The remaining data was then exported to an excel compatible data file and only currents with tail currents greater than 250 pA were analyzed. The post/pre tail current amplitude ratio for the third pulse was calculated for each drug and control, and presented as percent inhibition.

SMILES strings stand for the structures.

The term inhibition denotes the percentage by which the read-out fell short of the control.

Consider `COc1cc(NC(=O)C(=O)c2c(C)n(Cc3ccc(Cl)cc3)c3cccc(OC)c23)ccn1` [Compound 45, 2-(1-(4-chlorobenzyl)-4-methoxy-2-methyl-1H-indol-3-yl)-N-(2-methoxypyridin-4-yl)-2-oxoacetamide], for which, in data set [1], the “2 hr plasma level-ng/mL (rat, 10 mg/kg PO, 2 hr)” value (“2 hr plasma level-ng/mL” below) is “C (C = between 100 nM and 1000 nM)”. At hERG channel, the inhibition at 600 s, 1 µM is under 25% and the inhibition at 600 s, 10 µM is under 25%.

Consider `COc1cc(NC(=O)C(=O)c2c(C)n(Cc3ncc(Cl)cc3Cl)c3ccccc23)ccn1` [Compound 31, 2-(1-((3,5-dichloropyridin-2-yl)methyl)-2-methyl-1H-indol-3-yl)-N-(2-methoxypyridin-4-yl)-2-oxoacetamide], for which the “2 hr plasma level-ng/mL” value in data set [1] is listed as “D (D = greater than 1000 nM)”. At hERG channel, the inhibition at 600 s, 1 µM was under 25% and the inhibition at 600 s, 10 µM was under 25%.

For the compound `COc1ccc(Cn2c(C)c(C(=O)C(=O)Nc3ccnc(OC)c3)c3cc(OC)ccc32)nc1` [Compound 43, 2-(5-methoxy-1-((5-methoxypyridin-2-yl)methyl)-2-methyl-1H-indol-3-yl)-N-(2-methoxypyridin-4-yl)-2-oxoacetamide], the “2 hr plasma level-ng/mL” value in data set [1] is recorded as “D (D = greater than 1000 nM)”. At hERG channel, the inhibition at 600 s, 1 µM was under 25% and the inhibition at 600 s, 10 µM was under 25%.

Take `COc1ccc(Cn2c(C)c(C(=O)C(=O)Nc3ccnc(OC)c3)c3cc(C)ccc32)nc1` [Compound 69, 2-(1-((5-methoxypyridin-2-yl)methyl)-2,5-dimethyl-1H-indol-3-yl)-N-(2-methoxypyridin-4-yl)-2-oxoacetamide]: the “2 hr plasma level-ng/mL” value in data set [1] is “C (C = between 100 nM and 1000 nM)”. For the same compound, at hERG channel, the inhibition at 600 s, 1 µM is under 25% and the inhibition at 600 s, 10 µM is under 25%.

Turning to `COc1ccc2c(c1)c(C(=O)C(=O)Nc1ccnc(OC)c1)c(C)n2Cc1ccccn1` [Compound 77, 2-(5-methoxy-2-methyl-1-(pyridin-2-ylmethyl)-1H-indol-3-yl)-N-(2-methoxypyridin-4-yl)-2-oxoacetamide], the “2 hr plasma level-ng/mL” value in data set [1] is “C (C = between 100 nM and 1000 nM)”. For the same compound, at hERG channel, the inhibition at 600 s, 1 µM is under 25% and the inhibition at 600 s, 10 µM is under 25%.

Turning to `COc1ccc2c(c1)c(C(=O)C(=O)Nc1ccnc(OC)n1)c(C)n2Cc1ccc(Cl)cc1` [Compound 46, 2-(1-(4-chlorobenzyl)-5-methoxy-2-methyl-1H-indol-3-yl)-N-(2-methoxypyrimidin-4-yl)-2-oxoacetamide], the “2 hr plasma level-ng/mL” value in data set [1] was “C (C = between 100 nM and 1000 nM)”. Further, on hERG channel, the inhibition at 600 s, 1 µM was under 25% and the inhibition at 600 s, 10 µM was under 25%.

For `COc1ccc2c(c1)c(C(=O)C(=O)Nc1cc(Cl)nc(OC)c1)c(C)n2Cc1ccc(Cl)cc1` [Compound 47, N-(2-chloro-6-methoxypyridin-4-yl)-2-(1-(4-chlorobenzyl)-5-methoxy-2-methyl-1H-indol-3-yl)-2-oxoacetamide], the “2 hr plasma level-ng/mL” value in data set [1] is “C (C = between 100 nM and 1000 nM)”. At hERG channel, the inhibition at 600 s, 1 µM is under 25% and the inhibition at 600 s, 10 µM was under 25%.

Take `COc1cc(NC(=O)C(=O)c2c(C)n(Cc3ccc(Cl)cc3)c3ccc(C(F)(F)F)cc23)ccn1` [Compound 21, 2-(1-(4-chlorobenzyl)-2-methyl-5-(trifluoromethyl)-1H-indol-3-yl)-N-(2-methoxypyridin-4-yl)-2-oxoacetamide]: the “2 hr plasma level-ng/mL” value in data set [1] was “C (C = between 100 nM and 1000 nM)”. For the same compound, at hERG channel, the inhibition at 600 s, 1 µM was under 25% and the inhibition at 600 s, 10 µM lay in the range of 25 to 50%.

For the compound `COc1cc(NC(=O)C(=O)c2c(C)n(Cc3ncc(Cl)cc3F)c3ccc(C)cc23)ccn1` [Compound 33, 2-(1-((5-chloro-3-fluoropyridin-2-yl)methyl)-2,5-dimethyl-1H-indol-3-yl)-N-(2-methoxypyridin-4-yl)-2-oxoacetamide], the “2 hr plasma level-ng/mL” value in data set [1] was “C (C = between 100 nM and 1000 nM)”. For the same compound, on hERG channel, the inhibition at 600 s, 1 µM was under 25% and the inhibition at 600 s, 10 µM is under 25%.

As for `COc1ccc2c(C(=O)C(=O)Nc3ccnc(OC)c3)c(C)n(Cc3ccc(Cl)cc3)c2c1` [Compound 48, 2-(1-(4-chlorobenzyl)-6-methoxy-2-methyl-1H-indol-3-yl)-N-(2-methoxypyridin-4-yl)-2-oxoacetamide], in data set [1], the “2 hr plasma level-ng/mL” value was “C (C = between 100 nM and 1000 nM)”. In addition, at hERG channel, the inhibition at 600 s, 1 µM was under 25% and the inhibition at 600 s, 10 µM is under 25%.

Turning to `COc1cc(NC(=O)C(=O)c2c(C)n(Cc3ccc(Cl)cc3)c3cc(OC)c(OC)cc23)ccn1` [Compound 44, 2-(1-(4-chlorobenzyl)-5,6-dimethoxy-2-methyl-1H-indol-3-yl)-N-(2-methoxypyridin-4-yl)-2-oxoacetamide], in data set [1], the “2 hr plasma level-ng/mL” value was “C (C = between 100 nM and 1000 nM)”. Moreover, on hERG channel, the inhibition at 600 s, 1 µM is under 25% and the inhibition at 600 s, 10 µM is under 25%.

Turning to `COc1cc(NC(=O)C(=O)c2c(C)n(Cc3ccc(Cl)cn3)c3cc(F)c(OC)cc23)ccn1` [Compound 64, 2-(1-((5-chloropyridin-2-yl)methyl)-6-fluoro-5-methoxy-2-methyl-1H-indol-3-yl)-N-(2-methoxypyridin-4-yl)-2-oxoacetamide], the “2 hr plasma level-ng/mL” value in data set [1] is “C (C = between 100 nM and 1000 nM)”. For the same compound, on hERG channel, the inhibition at 600 s, 1 µM is under 25% and the inhibition at 600 s, 10 µM lay in the range of 25 to 50%.

For `COc1cnc2c(c1)c(C(=O)C(=O)Nc1ccnc(OC)c1)c(C)n2Cc1ccc(Cl)cn1` [Compound 41, 2-(1-((5-chloropyridin-2-yl)methyl)-5-methoxy-2-methyl-1H-pyrrolo[2,3-b]pyridin-3-yl)-N-(2-methoxypyridin-4-yl)-2-oxoacetamide], the “2 hr plasma level-ng/mL” value in data set [1] is reported as “D (D = greater than 1000 nM)”. On hERG channel, the inhibition at 600 s, 1 µM was under 25% and the inhibition at 600 s, 10 µM fell in the range of 25 to 50%.

`COc1cc(NC(=O)C(=O)c2c(C)n(Cc3ccc(Cl)cc3)c3ccc(N)cc23)ccn1` [Compound 20, 2-(5-amino-1-(4-chlorobenzyl)-2-methyl-1H-indol-3-yl)-N-(2-methoxypyridin-4-yl)-2-oxoacetamide]: the “2 hr plasma level-ng/mL” value in data set [1] is “C (C = between 100 nM and 1000 nM)”. On hERG channel, the inhibition at 600 s, 1 µM is under 25% and the inhibition at 600 s, 10 µM was under 25%.

In the case of `COc1cnc2c(c1)c(C(=O)C(=O)Nc1ccnc(OC)c1)c(C)n2Cc1ccc(Cl)cc1Cl` [Compound 42, 2-(1-(2,4-dichlorobenzyl)-5-methoxy-2-methyl-1H-pyrrolo[2,3-b]pyridin-3-yl)-N-(2-methoxypyridin-4-yl)-2-oxoacetamide], the “2 hr plasma level-ng/mL” value in data set [1] was “C (C = between 100 nM and 1000 nM)”. Further, on hERG channel, the inhibition at 600 s, 1 µM is under 25% and the inhibition at 600 s, 10 µM is 50 to 75%.

The record behind these values is patent US20150175599A1, “FAAH Inhibitors” (Ironwood Pharmaceuticals, Inc., priority 2010, published 2015).
